Values of other authors in patent publication US20190328884A1, “COMPOSITIONS AND METHODS OF THEIR USE” (Chemic Laboratories, Inc., priority 2018, published 2019).

Conditions: in vivo

NC(=O)N1c2ccccc2C=Cc2ccccc21 [carbamezepine]
decrease in white blood cell count: 25% | increase in the risk of blood dyscrasias: five- to eight | patients shown to have a 25% decrease in their white blood cell count: 7%
